Values after ≈ are worked out from the molar mass of the structure shown. Counter-ions that a name gives are not always drawn. Like-named read-outs stand apart in the source and are kept apart here.
Columns and labels:
[1] = tested on: Staphylococcuss aureus HPC 527; assay: MIC, twofold agar dilution method (clinically isolated strain); type: cell-based; settings: Staphylococcuss aureus HPC 527, Gram +; 10^6 cfu/ml; 18 hrs at 37 °C
Experimental: (§1) Overnight cultures in Mueller-Hinton broth were suspended by buffered saline gelatin. One loopful of the bacterial suspension (10⁶ or 10⁸ colony-forming units/ml) was incubated onto the plates containing test compounds. The plates were incubated for 18 hrs at 37 °C. The MIC was defined by the lowest concentration of the drug that inhibited visible growth of bacteria.

[2] = tested on: Pseudomonas aeruginosa HNR 1537; assay: as above; type: cell-based; settings: HNR1537; Pseudomonas aeruginosa HNR 1537, Gram -; 10^6 cfu/ml; 18 hrs at 37 °C
Experimental: as §1

[3] = tested on: Enterobacter cloacae HNR 1939; assay: as above; type: cell-based; settings: HNR1939; Enterobacter cloacae HNR 1939, Gram -; 10^6 cfu/ml; 18 hrs at 37 °C
Experimental: as §1

[4] = tested on: Staphylococcuss aureus HPC 308; assay: as above; type: cell-based; settings: Staphylococcuss aureus HPC 308, Gram +; 10^6 cfu/ml; 18 hrs at 37 °C
Experimental: as §1

[5] = tested on: Pseudomonas aeruginosa HNR 1472; assay: as above; type: cell-based; settings: HNR1472; Pseudomonas aeruginosa HNR 1472, Gram -; 10^6 cfu/ml; 18 hrs at 37 °C
Experimental: as §1

[6] = tested on: Klebsiella pneumoniae HNR 828; assay: as above; type: cell-based; settings: HNR828; Klebsiella pneumoniae HNR 828, Gram -; 10^6 cfu/ml; 18 hrs at 37 °C
Experimental: as §1

[7] = tested on: Enterobacter cloacae HNR 1941; assay: as above; type: cell-based; settings: HNR1941; Enterobacter cloacae HNR 1941, Gram -; 10^6 cfu/ml; 18 hrs at 37 °C
Experimental: as §1

[8] = tested on: Acinetobacter calcoaceticus HNR 939; assay: as above; type: cell-based; settings: HNR939; Acinetobacter calcoaceticus HNR 939, Gram -; 10^6 cfu/ml; 18 hrs at 37 °C
Experimental: as §1

[9] = tested on: Pseudomonas aeruginosa HNR 1489; assay: as above; type: cell-based; settings: HNR1489; Pseudomonas aeruginosa HNR 1489, Gram -; 10^6 cfu/ml; 18 hrs at 37 °C
Experimental: as §1

[10] = tested on: Enterococcus faecalis HPC 975; assay: as above; type: cell-based; settings: HPC975; Enterococcus faecalis HPC 975, Gram +; 10^6 cfu/ml; 18 hrs at 37 °C
Experimental: as §1

[11] = tested on: Klebsiella pneumoniae HNR 869; assay: as above; type: cell-based; settings: HNR869; Klebsiella pneumoniae HNR 869, Gram -; 10^6 cfu/ml; 18 hrs at 37 °C
Experimental: as §1

[12] = tested on: Serratia marcescens HNR 1767; assay: as above; type: cell-based; settings: HNR1767; Serratia marcescens HNR 1767, Gram -; 10^6 cfu/ml; 18 hrs at 37 °C
Experimental: as §1

[13] = tested on: Acinetobacter calcoaceticus HNR 916; assay: as above; type: cell-based; settings: HNR916; Acinetobacter calcoaceticus HNR 916, Gram -; 10^6 cfu/ml; 18 hrs at 37 °C
Experimental: as §1

[14] = tested on: Serratia marcescens HNR 1792; assay: as above; type: cell-based; settings: HNR1792; Serratia marcescens HNR 1792, Gram -; 10^6 cfu/ml; 18 hrs at 37 °C
Experimental: as §1

[15] = tested on: Serratia marcescens HNR 1544; assay: as above; type: cell-based; settings: HNR1544; Serratia marcescens HNR 1544, Gram -; 10^6 cfu/ml; 18 hrs at 37 °C
Experimental: as §1

[16] = tested on: Enterobacter cloacae HNR 1946; assay: as above; type: cell-based; settings: HNR1946; Enterobacter cloacae HNR 1946, Gram -; 10^6 cfu/ml; 18 hrs at 37 °C
Experimental: as §1

[17] = tested on: Enterococcus faecalis HPC 948; assay: as above; type: cell-based; settings: HPC948; Enterococcus faecalis HPC 948, Gram +; 10^6 cfu/ml; 18 hrs at 37 °C
Experimental: as §1

[18] = tested on: Acinetobacter calcoaceticus HNR 904; assay: as above; type: cell-based; settings: HNR904; Acinetobacter calcoaceticus HNR 904, Gram -; 10^6 cfu/ml; 18 hrs at 37 °C
Experimental: as §1

[19] = tested on: Enterococcus faecalis HPC 984; assay: as above; type: cell-based; settings: HPC984; Enterococcus faecalis HPC 984, Gram +; 10^6 cfu/ml; 18 hrs at 37 °C
Experimental: as §1

[20] = tested on: Klebsiella pneumoniae HNR 858; assay: as above; type: cell-based; settings: HNR858; Klebsiella pneumoniae HNR 858, Gram -; 10^6 cfu/ml; 18 hrs at 37 °C
Experimental: as §1

[21] = tested on: Staphylococcuss aureus HPC 292; assay: as above; type: cell-based; settings: Staphylococcuss aureus HPC 292, Gram +; 10^6 cfu/ml; 18 hrs at 37 °C
Experimental: as §1

[22] = tested on: Serratia marcescens IAM 1184; assay: MIC, twofold agar dilution method (standard laboratory strain); type: cell-based; settings: IAM1184; Serratia marcescens IAM 1184, Gram -; 10^6 cfu/ml; 18 hrs at 37 °C
Experimental: as §1

[23] = tested on: Enterobacter cloacae 963; assay: as above; type: cell-based; settings: Enterobacter cloacae 963, Gram -; 10^6 cfu/ml; 18 hrs at 37 °C
Experimental: as §1

[24] = tested on: Staphylococuss aureus FDA 209PJC-1; assay: as above; type: cell-based; settings: Staphylococuss aureus FDA 209PJC-1, Gram +; 10^6 cfu/ml; 18 hrs at 37 °C
Experimental: as §1

[25] = tested on: Pseudomonas aeruginosa IFO 3445; assay: as above; type: cell-based; settings: IFO3445; Pseudomonas aeruginosa IFO 3445, Gram -; 10^6 cfu/ml; 18 hrs at 37 °C
Experimental: as §1

[26] = tested on: Escherichia coli NIHJ JC-2; assay: as above; type: cell-based; settings: NIHJJC2; Escherichia coli NIHJ JC-2, Gram -; 10^6 cfu/ml; 18 hrs at 37 °C
Experimental: as §1

[27] = tested on: Klebsiella pneumoniae PCI-602; assay: as above; type: cell-based
Experimental: Minimum inhibitory concentrations (MIC) of test compounds were determined by the twofold agar dilution method (Chemotherapy, 29(1), 76(1981)). Overnight cultures in Mueller-Hinton broth were suspended by buffered saline gelatin. One loopful of the bacterial suspension (10⁶ or 10⁸ colony-forming units/ml) was incubated onto the plates containing test compounds. The plates were incubated for 18 hrs at 37 °C. The MIC was defined by the lowest concentration of the drug that inhibited visible growth of bacteria.

[28] = tested on: Male mice of ddY strain; assay: Convulsion inducing activity in combination with fenbufen; settings: thirty minutes after fenbufen 100 mg/kg orally
Experimental: Male mice of ddY strain, 5 weeks old, were used. Fenbufen suspended in 0.5 % carboxymethylcellulose was administered orally at a dose of 100 mg/kg. After thirty minutes, test compounds suspended in 0.5 % carboxymethylcellulose were injected intraperitoneally (i.p.) at a dose of 100 mg/kg or 300 mg/kg.

[29] = PCI602, Klebsiella pneumoniae PCI-602, Gram -, 10^6 cfu/ml, 18 hrs at 37 °C, read-out: MIC

Compound | MIC [1] [µg/mL] | MIC [2] [µg/mL] | MIC [3] [µg/mL] | MIC [4] [µg/mL] | MIC [5] [µg/mL] | MIC [6] [µg/mL] | MIC [7] [µg/mL] | MIC [8] [µg/mL] | MIC [9] [µg/mL] | MIC [10] [µg/mL] | MIC [11] [µg/mL] | MIC [12] [µg/mL] | MIC [13] [µg/mL] | MIC [14] [µg/mL] | MIC [15] [µg/mL] | MIC [16] [µg/mL] | MIC [17] [µg/mL] | MIC [18] [µg/mL] | MIC [19] [µg/mL] | MIC [20] [µg/mL] | further results
CC1Sc2c(C(=O)O)c(=O)c3cc(F)c(N4CCNCC4)cc3n21 (stereo not drawn) [Ref. Drug B, 6-fluoro-1-methyl-4-oxo-7-(1-piperazinyl)-1H,4H-[1,3]thiazeto[3,2-a]quinoline-3-carboxylic acid] | 0.39 (≈ 1.12 µM) | 6.25 (≈ 17.9 µM) | 0.2 (≈ 0.572 µM) | 25 (≈ 71.6 µM) | 6.25 (≈ 17.9 µM) | 1.56 (≈ 4.46 µM) | 12.5 (≈ 35.8 µM) | 6.25 (≈ 17.9 µM) | 0.1 (≈ 0.286 µM) | 50 (≈ 143 µM) | 0.78 (≈ 2.23 µM) | 50 (≈ 143 µM) | 0.78 (≈ 2.23 µM) | 6.25 (≈ 17.9 µM) | 0.05 (≈ 0.143 µM) | 0.39 (≈ 1.12 µM) | 6.25 (≈ 17.9 µM) | > 100 | 0.78 (≈ 2.23 µM) | 0.2 (≈ 0.572 µM) | MIC [21]: 50 µg/mL (≈ 143 µM); MIC [22]: 0.05 µg/mL (≈ 0.143 µM); MIC [23]: 0.05 µg/mL (≈ 0.143 µM); MIC [24]: 0.1 µg/mL (≈ 0.286 µM); MIC [25]: 0.2 µg/mL (≈ 0.572 µM); MIC [26]: 0.025 µg/mL (≈ 0.0716 µM); MIC [27, 29]: 0.012 µg/mL (≈ 0.0343 µM)
CC1Sc2c(C(=O)O)c(=O)c3cc(F)c(N4CC[C@@H](N)C4)c(F)c3n21 (single isomer, unassigned) [Example 26] | 0.05 (≈ 0.136 µM) | 6.25 (≈ 17 µM) | 0.1 (≈ 0.272 µM) | 0.78 (≈ 2.12 µM) | 6.25 (≈ 17 µM) | 1.56 (≈ 4.25 µM) | 3.13 (≈ 8.52 µM) | 0.78 (≈ 2.12 µM) | 0.1 (≈ 0.272 µM) | 3.13 (≈ 8.52 µM) | 0.78 (≈ 2.12 µM) | 6.25 (≈ 17 µM) | 0.1 (≈ 0.272 µM) | 1.56 (≈ 4.25 µM) | 0.05 (≈ 0.136 µM) | 0.2 (≈ 0.544 µM) | 0.39 (≈ 1.06 µM) | 25 (≈ 68 µM) | 0.1 (≈ 0.272 µM) | 0.2 (≈ 0.544 µM) | MIC [21]: 3.13 µg/mL (≈ 8.52 µM); MIC [22]: 0.05 µg/mL (≈ 0.136 µM); MIC [23]: 0.05 µg/mL (≈ 0.136 µM); MIC [24]: 0.05 µg/mL (≈ 0.136 µM); MIC [25]: 0.1 µg/mL (≈ 0.272 µM); MIC [26]: 0.025 µg/mL (≈ 0.068 µM); MIC [27, 29]: 0.012 µg/mL (≈ 0.0327 µM)
CC1Sc2c(C(=O)O)c(=O)c3cc(F)c(N4CC[C@@H](N)C4)c(Cl)c3n21 (single isomer, unassigned) [Example 17] | 0.05 (≈ 0.13 µM) | 6.25 (≈ 16.3 µM) | 0.1 (≈ 0.261 µM) | 0.78 (≈ 2.03 µM) | 3.13 (≈ 8.15 µM) | 1.56 (≈ 4.06 µM) | 1.56 (≈ 4.06 µM) | 0.78 (≈ 2.03 µM) | 0.2 (≈ 0.521 µM) | 1.56 (≈ 4.06 µM) | 0.78 (≈ 2.03 µM) | 6.25 (≈ 16.3 µM) | 0.1 (≈ 0.261 µM) | 1.56 (≈ 4.06 µM) | 0.05 (≈ 0.13 µM) | 0.2 (≈ 0.521 µM) | 0.39 (≈ 1.02 µM) | 12.5 (≈ 32.6 µM) | 0.1 (≈ 0.261 µM) | 0.2 (≈ 0.521 µM) | MIC [21]: 1.56 µg/mL (≈ 4.06 µM); MIC [22]: 0.05 µg/mL (≈ 0.13 µM); MIC [23]: 0.05 µg/mL (≈ 0.13 µM); MIC [24]: 0.025 µg/mL (≈ 0.0651 µM); MIC [25]: 0.1 µg/mL (≈ 0.261 µM); MIC [26]: 0.025 µg/mL (≈ 0.0651 µM); MIC [27, 29]: 0.025 µg/mL (≈ 0.0651 µM)
NC1CCN(c2c(F)cc3c(=O)c(C(=O)O)c4n(c3c2F)CS4)C1 (stereo not drawn) [Ref. Drug E, 7-(3-amino-1-pyrrolidinyl)-6,8-difluoro-4-oxo-1H,4H-[1,3]thiazeto[3,2-a]quinoline-3-carboxylic acid] | 0.2 (≈ 0.566 µM) | > 100 | 0.78 (≈ 2.21 µM) | 100 (≈ 283 µM) | > 100 | 50 (≈ 142 µM) | > 100 | > 100 | 0.39 (≈ 1.1 µM) | > 100 | 50 (≈ 142 µM) | > 100 | 0.39 (≈ 1.1 µM) | > 100 | 0.1 (≈ 0.283 µM) | 1.56 (≈ 4.41 µM) | 50 (≈ 142 µM) | > 100 | 0.78 (≈ 2.21 µM) | 0.78 (≈ 2.21 µM) | MIC [21]: > 100 µg/mL; MIC [22]: 0.2 µg/mL (≈ 0.566 µM); MIC [23]: 0.1 µg/mL (≈ 0.283 µM); MIC [24]: 0.1 µg/mL (≈ 0.283 µM); MIC [25]: 0.2 µg/mL (≈ 0.566 µM); MIC [26]: 0.1 µg/mL (≈ 0.283 µM); MIC [27, 29]: 0.05 µg/mL (≈ 0.142 µM)
O=C(O)c1cn(C2CC2)c2cc(N3CCNCC3)c(F)cc2c1=O [Ref. Drug A, ciprofloxacin hydrochloride] | – | – | – | – | – | – | – | – | – | – | – | – | – | – | – | – | – | – | – | – | Number of convulsion induced / Number of animals ([28]; 100 mg/kg (i.p.)): 4 / 6; Number of convulsion induced / Number of animals ([28]; 300 mg/kg (i.p.)): 6 / 6; MIC ([27]; Klebsiella pneumoniae, PCI602, 18 h): 0.012 µg/mL

From patent EP0465716A1, “Optically active thiazetoquino-line-3-carboxylic acid compound, method for preparation thereof, and a pharmaceutical composition comprising the same” (priority 1990, dated 1992)
